These results are taken from patent US20080286219A1, “Hydroquinone derivative skin brightening compounds” (priority 2007, published 2008).

The first experiment has as its target Mushroom Tyrosinase (Sigma T3824). The experiment can be described thus: General in vitro tyrosinase inhibition assay (L-Dopa oxidation to dopachrome). In kind it is biochemical. The conditions noted are these: 0.5 mM L-Dopa, pH 7.0, 30° C., 475 nm, 18 Units Mushroom Tyrosinase.
For `CC(=O)N[C@@H](CSc1cc(O)ccc1O)C(=O)O` [Compound X29876-018], the EC50 was determined as 4850 µM.
The same measure, in the same setting: the value for `NC(CCC(=O)NC(CSc1cc(O)ccc1O)C(=O)NCC(=O)O)C(=O)O` (stereo not shown) [Compound X29876-019] was 10400 µM; that for `N[C@@H](CSc1cc(O)ccc1O)C(=O)O` [Compound X29876-063] was 20 µM; that for `CCOC(=O)[C@@H](N)CSc1cc(O)ccc1O` [Compound X29876-064] was 250 µM.
The compound `CC(C)(Sc1cc(O)ccc1O)C(N)C(=O)O` (stereo not shown) [Compound X29876-144] came in with an EC50 of 70 µM.
Take `COC(=O)[C@@H](N)CSc1cc(O)ccc1O` [Compound X29876-145]: the concentration for a half-maximal effect (EC50) worked out at 130 µM.
In the case of `N[C@H](CSc1cc(O)ccc1O)C(=O)O` [Compound X29876-147], the concentration giving a half-maximal response (EC50) was determined as 30 µM.
The compound `C[C@H](CSc1cc(O)ccc1O)C(=O)N1CCC[C@H]1C(=O)O` [Compound X29876-155] returned an EC50 of 12200 µM.
Same read-out and setting: the value for `Cc1nc(Sc2cc(O)ccc2O)sc1CC(=O)O` [Compound X29876-160] was 520 µM; that for `OCCCCCCSc1cc(O)ccc1O` [Compound X29876-162] was 10 µM.
Consider `O=C(O)CSc1cc(O)ccc1O` [Compound X29876-163], for which the EC50 was 9410 µM. Compared with the last compound, the EC50 is about 940-fold higher.
With `CCOC(=O)CSc1cc(O)ccc1O` [Compound X29876-169], the EC50 is 3280 µM.
In turn, `CC(=O)C(C)Sc1cc(O)ccc1O` (stereo not shown) [Compound X29876-181] came in with an EC50 of 310 µM. Against the preceding compound, the EC50 is about 11-fold lower.
In turn, `Oc1ccc(O)c(SCc2cccs2)c1` [Compound X29876-198] gave a 50% effective concentration (EC50) of 200 µM.
For `Oc1ccc(O)cc1` [Hydroquinone, hydroquinone], the EC50 came to 620 µM.

The experiment is the same for the next values; noted with them: compared to HQ.
As for `N[C@@H](CSc1cc(O)ccc1O)C(=O)O` [Compound X29876-063], the “fold more potent than HQ” value is listed as “about 25 fold”.

Usually EC50 stands for the concentration that produces a half-maximal response. Read a high EC50 as weaker potency.
